Consider 2 compounds from EP0162494A1, “Process for the preparation of a 3-hydroxy-2,3-dihydrobenzisothiazole 1,1-dioxide and the use of this compound as a biocide and for preparing an ortho-sulphobenzimide” (AKZO N.V., priority 1984, dated 1985).

One series has as its system Pseudomonas aeruginosa. The series is described as follows: MIC, modified DGHM dilution method. The series is classed as cell-based. The conditions noted are these: A.C. = active compound.
Another series relates to Escherichia coli. The series is described as follows: MIC, modified DGHM dilution method. The format is cell-based. The conditions noted are these: A.C. = active compound.
The subject of the next series is Proteus mirabilis. Put plainly: MIC, modified DGHM dilution method. The format is cell-based. The conditions noted are these: A.C. = active compound.
A further series deals with Staphylococcus aureus. The series is described as follows: MIC, modified DGHM dilution method. The format is cell-based. The conditions noted are these: A.C. = active compound.
For a further series, the system named is Streptococcus faecalis. The series is described as follows: MIC, modified DGHM dilution method. The conditions noted are these: Enterococcus faecalis, A.C. = active compound. The series is classed as cell-based.
For a further series, the system named is Candida albicans. The series is described as follows: MIC, modified DGHM dilution method. The format is cell-based. Conditions: A.C. = active compound.
In the next series the test system is Saccharomyces cerevisiae. The series is described as follows: MIC, modified DGHM dilution method. The format is cell-based. Conditions: A.C. = active compound.
The test system of another series is Chaetomium globosum. Put plainly: MIC, modified DGHM dilution method. The series is classed as cell-based. Conditions: A.C. = active compound.
A further series relates to Paecillomyces varioti. Put plainly: MIC, modified DGHM dilution method. Conditions: A.C. = active compound. The format is cell-based.
A further series has as its system Trichoderma viride. The series is described as follows: MIC, modified DGHM dilution method. Conditions: A.C. = active compound. The series is classed as cell-based.
Another series relates to Aspergillus niger. Put plainly: MIC, modified DGHM dilution method. The format is cell-based. The conditions noted are these: A.C. = active compound.
For another series, the system named is Pellicularia sasaki. Put plainly: MIC, modified DGHM dilution method. The format is cell-based. Conditions: A.C. = active compound.
The test system of another series is Pyricularia oryzae. The series is described as follows: microbe, parasite or virus in culture. The format is cell-based. Conditions: read-out: MIC-values.
The subject of another series is fungi. Put plainly: MIC, DGHM dilution test method, by type of microorganism. The conditions noted are these: read-out: minimum growth inhibiting concentration (MIC value). The series is classed as cell-based. The procedure:
(§1) The minimum growth inhibiting concentration (MIC value) of 3-hydroxy-2,3-dihydrobenzisothiazole-1,1-dioxide for the different types of microorganisms was determined in conformity with the dilution test method of the "Deutsche Gesellschaft fUr Hygiene und Mikrobiologie" (DGHM) and are: […]

A further series relates to gram negative bacteria. Described as above. The series is classed as cell-based. The conditions noted are these: read-out: minimum growth inhibiting concentration (MIC value). The procedure:
as §1

A further series deals with gram positive bacteria. The series is described as above. The format is cell-based. The conditions noted are these: read-out: minimum growth inhibiting concentration (MIC value). As to the method: as §1
Another series deals with yeasts. The series is described as above. The format is cell-based. The conditions noted are these: read-out: minimum growth inhibiting concentration (MIC value). As to the method:
as §1

Series [1] in a line: Acute oral toxicity in rats. The format is in vivo. Conditions: for LD50 at 24 h / LD50 at 48 h / LD50 at 336 h: rat, in vivo, po; for LD50 at 24 h: after 24 hours; for LD50 at 48 h: after 48 hours; for LD50 at 336 h: after 14 days.
Series [2] concerns sulfphate reducing bacteria. Put plainly: Bacteriostatic activity towards sulphate reducing bacteria. The format is cell-based. Conditions: result in words.
In a further series the test system is certain bacteria. Put plainly: Synergy with quaternary ammonium compounds. The series is classed as cell-based. The conditions noted are these: in combination with some quaternary ammonium compounds such as dimethylbenzyl coco-ammonium chloride or didecyldimethyl ammonium chloride.

Converted amounts (≈) assume the structure as drawn.

Take `COC1=NS(=O)(=O)c2ccccc21` [3-methoxy-1,2-benzisothiazole-1,1-dioxide, reference compound]: the MIC against Pseudomonas aeruginosa was over 1200 mg/L; in the series on Escherichia coli it was 1200 mg/L (≈ 6.08 mM); in the series on Proteus mirabilis, 600 to 1200 mg/L (≈ 3.04 to 6.08 mM); in the series with Staphylococcus aureus it was over 1200 mg/L; against Streptococcus faecalis, over 1200 mg/L; in the series with Candida albicans, over 1200 mg/L. Moreover, the MIC with Saccharomyces cerevisiae was over 1200 mg/L; against Chaetomium globosum, over 1200 mg/L; against Paecillomyces varioti it was 600 to 1200 mg/L (≈ 3.04 to 6.08 mM); against Trichoderma viride, over 1200 mg/L; against Aspergillus niger it was over 1200 mg/L; against Pellicularia sasaki, 600 to 1200 mg/L (≈ 3.04 to 6.08 mM). The MIC with Pyricularia oryzae is over 1200 mg/L.

As for `O=S1(=O)NC(O)c2ccccc21` (stereo not drawn) [3-hydroxy-2,3-dihydrobenzisothiazole-1,1-dioxide], the MIC in the series on Pseudomonas aeruginosa was 1200 mg/L (≈ 6.48 mM); with Escherichia coli it was 600 to 1200 mg/L (≈ 3.24 to 6.48 mM); against Proteus mirabilis, 600 to 1200 mg/L (≈ 3.24 to 6.48 mM); with Staphylococcus aureus, 600 to 1200 mg/L (≈ 3.24 to 6.48 mM); with Streptococcus faecalis, 600 to 1200 mg/L (≈ 3.24 to 6.48 mM); against Candida albicans it was 600 to 1200 mg/L (≈ 3.24 to 6.48 mM). In addition, the MIC against Saccharomyces cerevisiae is 300 to 600 mg/L (≈ 1.62 to 3.24 mM); in the series with Chaetomium globosum, 37.5 to 75 mg/L (≈ 0.202 to 0.405 mM); in the series with Paecillomyces varioti, 18.8 to 37.5 mg/L (≈ 0.102 to 0.202 mM); against Trichoderma viride it was 75 to 150 mg/L (≈ 0.405 to 0.81 mM); against Aspergillus niger, 75 to 150 mg/L (≈ 0.405 to 0.81 mM); in the series with Pellicularia sasaki, 150 mg/L (≈ 0.81 mM). Besides, the MIC with Pyricularia oryzae lay in the range of 150 to 200 mg/L (≈ 0.81 to 1.08 mM); with fungi, 37.5 to 600 mg/L (≈ 0.202 to 3.24 mM); in the series with gram negative bacteria, 600 to 2400 mg/L (≈ 3.24 to 13 mM); with gram positive bacteria, 600 to 1200 mg/L (≈ 3.24 to 6.48 mM); in the series with yeasts, 300 to 1200 mg/L (≈ 1.62 to 6.48 mM). For the same compound, the values for the LD50 at 24 h in series [1] (♀ rats), in series [1] (♂ + ♀ rats) and in [1] (♂ rats) were 860 mg/kg, 1070 mg/kg and 1380 mg/kg, respectively. Moreover, the LD50 (commonly the dose at which mortality reaches 50%) at 48 h in series [1] (♀ rats) came to 860 mg/kg; in series [1] (♂ + ♀ rats), 1020 mg/kg; in series [1] (♂ rats), 1220 mg/kg. Besides, the 50% lethal dose (LD50) at 336 h was found to be 860 mg/kg in series [1] (♀ rats), 1020 mg/kg in series [1] (♂ + ♀ rats) and 1220 mg/kg in series [1] (♂ rats). Moreover, the oral toxicity result in series [1] (result in words) is reported as “low oral toxicity”. The bacteriostatic activity entry in series [2] is listed as “remarkable bacteriostatic activity”. Further, in the series on certain bacteria, the effect in combination result is “synergistic effect”.
